Here are results for 68 compounds from ChEMBL document CHEMBL1152484, “3D-QSAR studies on the inhibitors of AP-1 and NF-kappaB mediated transcriptional activation” (Eur J Med Chem, 2009).

The test can be described thus: Inhibition of AP-1/NF-kappaB transfected in human jurkat T cells assessed as inhibition of transcriptional activation. Format: cell-based.
Consider `CC1=CC(=O)N(Nc2nc(C(F)(F)F)nc3cc(N4CCCCC4)ccc23)C1=O`, for which the IC50 (usually the concentration needed to halve the response being measured) was 200 nM. For `CC1=CC(=O)N(Nc2nc(C(F)(F)F)nc3ccccc23)C1=O`, the IC50 was 100 nM. Next, `CC1=CC(=O)N(Nc2nc(C(F)(F)F)nc3ccc(S(C)(=O)=O)cc23)C1=O`: 8990 nM; `COc1ccc2nc(C(F)(F)F)nc(NN3C(=O)C=C(C)C3=O)c2c1`: 30 nM; `COc1ccc2c(NN3C(=O)C=C(C)C3=O)nc(-c3cccs3)nc2c1`: 20 nM. Consider `COc1cccc2c(NN3C(=O)C=C(C)C3=O)nc(-c3cccs3)nc12`, for which the half-maximal inhibitory concentration (IC50) was 50 nM. For the compound `CC1=CC(=O)N(Nc2nc(-c3cccs3)nc3ccccc23)C1=O`, the IC50 is 60 nM. As to `COc1cc2nc(-c3cccs3)nc(NN3C(=O)C=C(C)C3=O)c2cc1OC`, the IC50 is 50 nM. Next, `CC1=CC(=O)N(Nc2nc(-c3cccs3)nc3ccc(Cl)cc23)C1=O`: 20 nM; `CC1=CC(=O)N(Nc2nc(C(F)(F)F)nc3ccc(O)cc23)C1=O`: 100 nM; `CC1=CC(=O)N(Nc2nc(-c3cccs3)nc3cccc(F)c23)C1=O`: 50 nM.

As to `COc1cccc2nc(C(F)(F)F)nc(NN3C(=O)C=C(C)C3=O)c12`, the IC50 is 10 nM. The same measure for `CC1=CC(=O)N(Nc2nc(-c3cccs3)nc3cccc(C)c23)C1=O`: 20 nM; for `CC1=CC(=O)N(Nc2nc(-c3cccs3)nc3cc(N4CCOCC4)ccc23)C1=O`: 200 nM; for `CSc1ccc2nc(C(F)(F)F)nc(NN3C(=O)C=C(C)C3=O)c2c1`: 80 nM. Next, `CCOC(=O)c1cnc(S(=O)(=O)c2ccccc2)nc1NN1C(=O)C=C(C)C1=O`: 10000 nM.

On to `CCOC(=O)c1cnc(-c2cccc(OC)c2)nc1NN1C(=O)C=C(C)C1=O`, for which the IC50 was 5000 nM.

Take `CCOC(=O)c1cnc(C(F)(F)F)nc1NN1C(=O)C=C(c2ccccc2)C1=O`: the IC50 was 20000 nM. With `CCOC(=O)c1cnc(-c2ccc(C(F)(F)F)cc2)nc1NN1C(=O)C=C(C)C1=O`, the half-maximal inhibitory concentration (IC50) was 400 nM. Next, `CC1=CC(=O)N(Nc2nc(-c3cccs3)ncc2-c2nc(C)co2)C1=O`: 200 nM; `CC1=CC(=O)N(Nc2nc(-c3cccs3)ncc2C2=NCCO2)C1=O`: 200 nM; `CCOC(=O)c1cnc(-c2cc(Cl)cc(Cl)c2)nc1NN1C(=O)C=C(C)C1=O`: 300 nM. As for `CC1=CC(=O)N(Nc2nc(-c3cccs3)ncc2-c2nnc(C)o2)C1=O`, the IC50 is 300 nM. On to `CCOC(=O)c1cnc(-c2cccc([N+](=O)[O-])c2)nc1NN1C(=O)C=C(C)C1=O`, for which the IC50 was 7000 nM.

As for `CCOC(=O)c1cnc(-c2ccccc2)nc1N(C(C)=O)N1C(=O)C=C(C)C1=O`, the IC50 was 4000 nM.

Turning to `CCOC(=O)c1cnc(-c2ccc(OC)cc2)nc1NN1C(=O)C=C(C)C1=O`, the IC50 is 899 nM.

With `CCOC(=O)c1cnc(-c2ccncc2)nc1NN1C(=O)C=C(C)C1=O`, the IC50 is 6000 nM. Next, `CCOC(=O)c1cnc(Cc2ccccc2)nc1NN1C(=O)C=C(C)C1=O`: 7000 nM.

In the case of `CC1=CC(=O)N(Nc2nc(-c3ccccc3)nc3ccccc23)C1=O`, the 50% inhibitory concentration (IC50) is 100 nM. Next, `COc1cc2c(NN3C(=O)C=C(C)C3=O)nc(-c3cccs3)nc2c(OC)c1OC`: 40 nM; `CC1=CC(=O)N(Nc2nc(C(F)(F)F)nc3ccc([S+](C)[O-])cc23)C1=O` (stereo not drawn): 1000 nM; `CC1=CC(=O)N(Nc2nc(C(F)(F)F)nc3cccc(C)c23)C1=O`: 400 nM. The same measure for `CC1=CC(=O)N(Nc2nc(-c3cccs3)nc3cc(N(C)C)ccc23)C1=O`: 40 nM. `CC1=CC(=O)N(Nc2nc(C(F)(F)F)nc3cc(N(C)C)ccc23)C1=O`: the IC50 is 20 nM. Regarding `COc1ccc2nc(-c3cccs3)nc(NN3C(=O)C=C(C)C3=O)c2c1`, the IC50 was 3 nM.

`CCOC(=O)c1cnc(C2CC2)nc1NN1C(=O)C=C(C)C1=O`: the IC50 was 1000 nM.

For the compound `CCOC(=O)c1cnc(-c2ccccc2)nc1N(C)N1C(=O)C=C(C)C1=O`, the IC50 was 2000 nM. In the case of `CCOC(=O)c1cnc(CC)nc1N(C)N1C(=O)C=C(C)C1=O`, the IC50 was 10000 nM.

Consider `CCOC(=O)c1cnc(-c2cccc(Br)c2)nc1NN1C(=O)C=C(C)C1=O`, for which the IC50 is 700 nM. The same measure for `CCOC(=O)c1cnc(Oc2ccccc2)nc1NN1C(=O)C=C(C)C1=O`: 15000 nM; for `CCOC(=O)c1cnc(-c2ccc(Cl)cc2)nc1NN1C(=O)C=C(C)C1=O`: 300 nM. Next, `CCOC(=O)c1cnc(C(C)(C)C)nc1NN1C(=O)C=C(C)C1=O`: 1000 nM; `CC1=CC(=O)N(Nc2nc(-c3cccs3)ncc2C#N)C1=O`: 5000 nM. The same measure for `CCOC(=O)c1cnc(-c2cccs2)nc1N(C)N1C(=O)C=C(C)C1=O`: 1000 nM; for `CCOC(=O)c1cnc(-c2ccc(C)s2)nc1NN1C(=O)C=C(C)C1=O`: 200 nM. `CCOC(=O)c1cnc(C(F)(F)F)nc1NN1C(=O)C=CC1=O`: the IC50 is 10000 nM. As to `CCOC(=O)c1cnc(C(F)(F)F)nc1NN1C(=O)C=C(C)C1=O`, the IC50 is 1000 nM. Next, `CCOC(=O)c1cnc(-c2cnc3ccccc3c2)nc1NN1C(=O)C=C(C)C1=O`: 10000 nM; `CCOC(=O)c1cnc(-c2ccccc2)nc1NN1C(=O)C=C(C)C1=O`: 100 nM. The same measure for `CCOC(=O)c1cnc(-c2csc(C)n2)nc1NN1C(=O)C=C(C)C1=O`: 8000 nM.

`CCOC(=O)c1cnc(C)nc1NN1C(=O)C=C(C)C1=O`: the IC50 is 16000 nM.

Consider `CCOC(=O)c1cnc(-c2cc3ccccc3s2)nc1NN1C(=O)C=C(C)C1=O`, for which the IC50 is 4000 nM.

Turning to `CCOC(=O)c1cnc(C(=O)c2ccco2)nc1NN1C(=O)C=C(C)C1=O`, the IC50 was 200 nM. Regarding `CCOC(=O)c1cnc(-c2ccc(Cl)s2)nc1NN1C(=O)C=C(C)C1=O`, the IC50 was 300 nM. On to `CCOC(=O)c1cnc(CC2=CCCCC2)nc1NN1C(=O)C=C(C)C1=O`, for which the IC50 is 2000 nM.

With `CCOC(=O)c1cnc(-c2ccc(F)cc2)nc1NN1C(=O)C=C(C)C1=O`, the IC50 is 700 nM. The same measure for `CC1=CC(=O)N(Nc2nc(-c3cccs3)ncc2-c2nnn(C)n2)C1=O`: 200 nM; for `CCOC(=O)c1cnc(-c2cccs2)nc1NN1C(=O)C=C(C)C1=O`: 20 nM.

As to `CCOC(=O)c1cnc(-c2ccc(F)cc2)nc1N(C)N1C(=O)C=C(C)C1=O`, the concentration for half-maximal inhibition (IC50) is 3000 nM. Next, `CCOC(=O)c1cnc(CC)nc1NN1C(=O)C=C(C)C1=O`: 10000 nM. As to `CCOC(=O)c1cnc(-c2ccsc2)nc1NN1C(=O)C=C(C)C1=O`, the half-maximal inhibitory concentration (IC50) was 100 nM. The same measure for `CCOC(=O)c1cnc(C(F)(F)F)nc1NN1C(=O)C(C)=C(C)C1=O`: 10000 nM; for `CCOC(=O)c1cnc(-c2cc(Cl)nc(Cl)c2)nc1NN1C(=O)C=C(C)C1=O`: 2000 nM; for `CCOC(=O)c1cnc(SC)nc1NN1C(=O)C=C(C)C1=O`: 200 nM.

For `CC1=CC(=O)N(Nc2nc(-c3cccs3)ncc2-c2cc(C)no2)C1=O`, the IC50 is 300 nM. Next, `CCOC(=O)c1cnc(Sc2ccccc2)nc1NN1C(=O)C=C(C)C1=O`: 1000 nM.

For the compound `CCOC(=O)c1cnc(-n2nc(C)cc2C)nc1NN1C(=O)C=C(C)C1=O`, the IC50 is 10000 nM. Next, `COc1cccc2nc(-c3cccs3)nc(NN3C(=O)C=C(C)C3=O)c12` [AS-602868]: 8 nM.
